# Patent US9458198B1, “Cyclic peptide-based NPR-B agonists” (priority 2009, dated 2016)
# How the values were obtained:
# [1] = test system: small-cell lung cancer cells; conditions: 100 nM; cited from earlier work
# [2] = test system: human renal carcinoma cells; conditions: 100 μM; cited from earlier work
# AtT-20 cells = conditions: cited from earlier work
# NPR-A = NPR-A (Rattus norvegicus, UniProt P18910); assay: cell-based
# Protocol: In this homogenous assay, the cells are stimulated in suspension with the test compound and the production of cyclic GMP (cGMP) is determined, from which EC50 values are calculated.
# Detached cells are harvested in 20 ml PBS and centrifuged for 10 min at 200×g at room temperature.
# 20 μl of cells (2.5×10^3 cells) are added to each well of a 96 well white optical bottom tissue culture plate (Nunc, Germany). 10 μl of compound dilution is added and the cells are stimulated for 25 min. at room temperature. The stimulation is stopped by addition of 20 μl of Lysis buffer (reagent included in cGMP Assay Kit).
# Determination of cGMP: The amount of produced cGMP in the cells is determined using HitHunter™ cGMP Assay kit (DiscoveRX) according to manufacturer's instructions.
# Dilutions are prepared in Medium supplemented with IBMX (1 mM).
# chondrocytes = conditions: low doses 10 to 100 pM, at the highest dose; cited from earlier work
# NPR-B = target: T1, NPR-B (Homo sapiens, UniProt P20594); assay: NPR-B induced production of cyclic GMP in GTM-3 cells; format: cell-based; conditions: EC50, cyclic GMP production, GTM-3 cells, FIG. 2, 4-Parameter Logistic Equation
# T1 construct: a functional assay using endogenously NPR-B expressing GTM-3 cells; endogenous in cells; host or cells: GTM-3 (transformed human trabecular meshwork cells)
# T1 sequence (P20594 23-1047): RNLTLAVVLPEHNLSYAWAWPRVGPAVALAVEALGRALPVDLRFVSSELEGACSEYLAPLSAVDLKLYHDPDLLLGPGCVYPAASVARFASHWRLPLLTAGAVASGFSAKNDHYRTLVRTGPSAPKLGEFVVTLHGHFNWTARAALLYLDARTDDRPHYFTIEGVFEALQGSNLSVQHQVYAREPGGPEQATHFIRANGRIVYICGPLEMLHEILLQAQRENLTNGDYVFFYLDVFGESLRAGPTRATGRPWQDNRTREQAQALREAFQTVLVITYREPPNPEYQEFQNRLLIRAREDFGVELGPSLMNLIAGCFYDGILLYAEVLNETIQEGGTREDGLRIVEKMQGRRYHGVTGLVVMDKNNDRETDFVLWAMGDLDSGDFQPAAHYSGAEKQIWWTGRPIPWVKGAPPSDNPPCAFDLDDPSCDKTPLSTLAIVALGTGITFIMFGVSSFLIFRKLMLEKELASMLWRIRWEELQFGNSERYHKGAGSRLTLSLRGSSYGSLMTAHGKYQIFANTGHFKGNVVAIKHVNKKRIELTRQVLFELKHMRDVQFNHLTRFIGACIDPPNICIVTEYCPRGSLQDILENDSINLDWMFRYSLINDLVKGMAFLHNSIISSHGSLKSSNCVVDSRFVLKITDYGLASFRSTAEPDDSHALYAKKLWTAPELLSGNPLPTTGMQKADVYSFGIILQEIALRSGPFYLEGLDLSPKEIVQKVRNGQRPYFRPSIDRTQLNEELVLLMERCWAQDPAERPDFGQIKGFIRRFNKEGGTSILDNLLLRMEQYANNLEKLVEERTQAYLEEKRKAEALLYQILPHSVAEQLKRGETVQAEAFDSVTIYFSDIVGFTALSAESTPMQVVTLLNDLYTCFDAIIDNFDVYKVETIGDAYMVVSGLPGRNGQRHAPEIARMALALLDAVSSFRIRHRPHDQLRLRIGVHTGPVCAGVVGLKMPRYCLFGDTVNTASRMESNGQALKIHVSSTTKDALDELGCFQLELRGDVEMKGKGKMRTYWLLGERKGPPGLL
# Outline: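 GTM-3 cells with endogenous NPR-B were washed and preincubated 15 min at room temperature in medium with 1 mM IBMX. Compounds were tested at final 45 μM to 20 nM; dose-dependent cGMP production gave Emax and EC50.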
# Sequence of NPR-A (P18910 29-1057): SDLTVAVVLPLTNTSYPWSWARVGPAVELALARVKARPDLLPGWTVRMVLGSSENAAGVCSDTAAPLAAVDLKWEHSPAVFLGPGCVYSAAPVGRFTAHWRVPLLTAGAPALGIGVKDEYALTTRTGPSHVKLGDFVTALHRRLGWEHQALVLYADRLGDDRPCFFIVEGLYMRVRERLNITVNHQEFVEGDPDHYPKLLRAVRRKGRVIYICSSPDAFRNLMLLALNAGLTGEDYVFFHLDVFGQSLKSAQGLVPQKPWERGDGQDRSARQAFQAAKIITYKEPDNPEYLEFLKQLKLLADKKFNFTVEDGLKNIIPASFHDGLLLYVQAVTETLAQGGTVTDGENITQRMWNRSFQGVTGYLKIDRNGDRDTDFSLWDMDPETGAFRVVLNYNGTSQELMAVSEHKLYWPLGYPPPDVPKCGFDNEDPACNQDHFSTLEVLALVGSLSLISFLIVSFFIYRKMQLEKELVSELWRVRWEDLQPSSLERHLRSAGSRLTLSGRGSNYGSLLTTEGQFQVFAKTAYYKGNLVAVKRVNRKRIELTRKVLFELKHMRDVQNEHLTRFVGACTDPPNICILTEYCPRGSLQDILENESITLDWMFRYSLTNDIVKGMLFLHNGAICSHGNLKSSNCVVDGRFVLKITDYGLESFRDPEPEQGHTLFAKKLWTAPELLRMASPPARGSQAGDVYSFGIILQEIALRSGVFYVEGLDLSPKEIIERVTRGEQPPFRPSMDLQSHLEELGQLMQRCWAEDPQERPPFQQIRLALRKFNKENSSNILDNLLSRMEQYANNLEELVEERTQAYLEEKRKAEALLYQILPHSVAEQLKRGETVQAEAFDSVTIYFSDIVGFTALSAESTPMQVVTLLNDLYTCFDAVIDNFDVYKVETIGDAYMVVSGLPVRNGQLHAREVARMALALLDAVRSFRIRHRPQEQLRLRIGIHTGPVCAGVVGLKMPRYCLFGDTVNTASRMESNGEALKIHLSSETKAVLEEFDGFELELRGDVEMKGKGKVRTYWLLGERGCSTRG
compound,measurement,setting,value
"CC[C@H](C)[C@@H]1NC(=O)[C@H](CCCNC(=N)N)NC(=O)[C@H](CC(=O)O)NC(=O)[C@H](CC(C)C)NC(=O)[C@H](CCCCN)NC(=O)[C@H](CC(C)C)NC(=O)CNC(=O)[C@H](Cc2ccccc2)NC(=O)[C@@H](NC(=O)CNC(=O)[C@H](CCCCN)NC(=O)[C@H](CO)NC(=O)[C@H](CC(C)C)NC(=O)CN)CSSC[C@@H](C(=O)O)NC(=O)CNC(=O)[C@H](CC(C)C)NC(=O)CNC(=O)[C@H](CO)NC(=O)[C@H](CCSC)NC(=O)[C@H](CO)NC(=O)CNC1=O [CNP, C-type natriuretic peptide]",decrease in the number of cells,[1],39%
same,decrease in cell number,[2],10%
same,stimulation of cGMP production,AtT-20 cells,up to 200 fold
same,EC50,NPR-A,1600 nM
same,increase in cellularity (chondrocyte proliferation),chondrocytes,up to 43%
same,EC50,NPR-B,38.8 nM
